The target of the assay is T1, Ba/F3 cell EGFR Exon20 ins NPH (Homo sapiens, UniProt P00533, INS773NPH).
T1 construct: expressed in transfected cells; host or cells: Ba/F3
Kind of assay: Ba/F3 cell proliferation suppression, EGFR Exon20 ins NPH. Format: cell-based. As to conditions: GI50 class; Ba/F3 cell line with NPH inserted at Exon20 of EGFR; 72 hours. The method, boiled down: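 After 72 h compound exposure (twelve 3-fold steps, 0.3 nM–50 um final), live cells were measured by CellTiter-Glo luminescence and growth expressed as % of control to derive GI50. Cells were seeded at 3000–5000 per well a day earlier; Ba/F3 medium contained IL-3; three repeats.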
`C=CC(=O)Nc1cc(Nc2cc(N3OCC[C@@H]3Cc3cccc(Cl)c3F)ncn2)c(OC)cc1N1CCC(N2C[C@H]3C[C@@H]2CO3)CC1` [compound 1021, N-(2-(4-((1R,4R)-2-oxa-5-azabicyclo [2.2.1]heptane-5-yl)piperidine-1-yl)-5-((6-((S)-3-(3-chloro-2-fluorobenzyl)isoxazolidine-2-yl)pyrimidine-4-yl)amino)-4-methoxyphenyl) acrylamide]: the “Ba/F3 (NPH) Activity” value is on record as “A (GI50 < 50 nM)”.

`C=CC(=O)Nc1cc(Nc2cc(N3OCC[C@@H]3c3ccc4ccccc4c3)ncn2)c(OC)cc1N1CCC(N2CCN(C)CC2)CC1` [compound 554, N-(4-methoxy-2-(4-(4-methylpiperazine-1-yl)piperidine-1-yl)-5-((6-((R)-3-(naphthalene-2-yl)isoxazolidine-2-yl)pyrimidine-4-yl)amino)phenyl)acrylamide]: the “Ba/F3 (NPH) Activity” value is recorded as “B (50 nM ≤ GI50 < 500 nM)”.

In the case of `C=CC(=O)Nc1cc(Nc2cc(N3OCC[C@@H]3c3cccc4ccccc34)ncn2)c(OC)cc1N1CCC(N(C)C)CC1` [compound 442, N-(2-(4-methoxy-5-((6-(dimethylamino)piperidine-1-yl)-4-((R)-3-(naphthalene-1-yl)isoxazolidine-2-yl)pyrimidine-4-yl)amino)phenyl) acrylamide], the “Ba/F3 (NPH) Activity” value is “A (GI50 < 50 nM)”.

Regarding `C=CC(=O)Nc1cc(Nc2cc(N3OCC[C@@H]3c3ccc4ccccc4c3)ncn2)c(OC)cc1N1CCC(N2C[C@H]3C[C@@H]2CO3)CC1` [compound 557, N-(2-(4-((1R,4R)-2-oxa-5-azabicyclo[2.2.1]heptane-5-yl)piperidine-1-yl)-4-methoxy-5-((6-((R)-3-(naphthalene-2-yl)isoxazolidine-2-yl)pyrimidine-4-yl)amino)phenyl)acrylamide], the “Ba/F3 (NPH) Activity” value was “B (50 nM ≤ GI50 < 500 nM)”.

Turning to `C=CC(=O)Nc1cc(Nc2cc(N3OCC[C@@H]3c3cccc(F)c3Cl)ncn2)c(OC)cc1N1CCC(N2CCN(C3CC3)C[C@@H]2C)CC1` [Example 144, N-(5-((6-((R)-3-(2-chloro-3-fluorophenyl)isoxazolidine-2-yl)pyrimidine-4-yl)amino)-2-(4-((S)-4-cyclopropyl-2-methylpiperazine-1-yl)piperidine-1-yl)-4-methoxyphenyl) acrylamide], the “Ba/F3 (NPH) Activity” value is given as “A (GI50 < 50 nM)”.

For the compound `C=CC(=O)Nc1cc(Nc2cc(N3OCC[C@@H]3c3ccc(F)cc3F)ncn2)c(OC)cc1N1CCC(N2C[C@H]3C[C@@H]2CN3CC)CC1` [compound 425, N-(5-((6-((R)-3-(2,4-difluorophenyl)isoxazolidine-2-yl)pyrimidine-4-yl)amino)-2-(4-((1R,4R)-5-ethyl-2,5-diazabicyclo [2.2.1]heptane-2-yl)piperidine-1-yl)-4-methoxyphenyl) acrylamide], the “Ba/F3 (NPH) Activity” value is reported as “A (GI50 < 50 nM)”.

Turning to `C=CC(=O)Nc1cc(Nc2cc(N3OCC[C@@H]3c3cccc(F)c3Cl)ncn2)c(OC)cc1N1CCC(N2C[C@H]3C[C@@H]2CO3)CC1` [compound 634, N-(2-(4-((1R,4R)-2-oxa-5-azabicyclo [2.2.1]heptane-5-yl)piperidine-1-yl)-5-((6-((R)-3-(2-chloro-3-fluorophenyl)isoxazolidine-2-yl)pyrimidine-4-yl)amino)-4-methoxyphenyl) acrylamide], the “Ba/F3 (NPH) Activity” value is “A (GI50 < 50 nM)”.

Take `C=CC(=O)Nc1cc(Nc2cc(N3OCC[C@@H]3c3cc(F)cc(Cl)c3)ncn2)c(OC)cc1N1CCC(N2CCN(C3CC3)C[C@@H]2C)CC1` [Example 160, N-(5-((6-((R)-3-(3-chloro-5-fluorophenyl)isoxazolidine-2-yl)pyrimidine-4-yl)amino)-2-(4-((S)-4-cyclopropyl-2-methylpiperazine-1-yl)piperidine-1-yl)-4-methoxyphenyl) acrylamide]: the “Ba/F3 (NPH) Activity” value is “A (GI50 < 50 nM)”.

`C=CC(=O)Nc1cc(Nc2cc(N3OCC[C@@H]3c3ccc(Cl)cc3)ncn2)c(OC)cc1N1CCC(N2CC[C@H](N(C)C)C2)CC1` [compound 784, N-(5-((6-((R)-3-(4-chlorophenyl)isoxazolidine-2-yl)pyrimidine-4-yl)amino)-2-(4-((S)-3-(dimethylamino)pyrolidine-1-yl)piperidine-1-yl)-4-methoxyphenyl) acrylamide]: the “Ba/F3 (NPH) Activity” value is “A (GI50 < 50 nM)”.

Turning to `C=CC(=O)Nc1cc(Nc2cc(N3OCC[C@@H]3c3cccc(Cl)c3Cl)ncn2)c(OC)cc1N1CCC(N2CCN(CC)CC2)CC1` [compound 569, N-(5-((6-((R)-3-(2,3-dichlorophenyl)isoxazolidine-2-yl)pyrimidine-4-yl)amino)-2-(4-(4-ethylpiperazine-1-yl)piperidine-1-yl)-4-methoxyphenyl) acrylamide], the “Ba/F3 (NPH) Activity” value is reported as “A (GI50 < 50 nM)”.

On to `C=CC(=O)Nc1cc(Nc2cc(N3OCC[C@@H]3Cc3cccc(F)c3Cl)ncn2)c(OC)cc1N1CCC(N2CCN(C3CC3)CC2)CC1` [compound 1007, N-(5-((6-((S)-3-(2-chloro-3-fluorobenzyl)isoxazolidine-2-yl)pyrimidine-4-yl)amino)-2-(4-(4-cyclopropylpiperazine-1-yl)piperidine-1-yl)-4-methoxyphenyl) acrylamide], for which the “Ba/F3 (NPH) Activity” value is reported as “A (GI50 < 50 nM)”.

For `C=CC(=O)Nc1cc(Nc2cc(N3OCC[C@@H]3c3ccc(Cl)c(F)c3)ncn2)c(OC)cc1N1CCC(N2C[C@H]3C[C@@H]2CN3CC)CC1` [compound 859, N-(5-((6-((R)-3-(4-chloro-3-fluorophenyl)isoxazolidine-2-yl)pyrimidine-4-yl)amino)-2-(4-((1R,4R)-5-ethyl-2,5-diazabicyclo [2.2.1]heptane-2-yl)piperidine-1-yl)-4-methoxyphenyl) acrylamide], the “Ba/F3 (NPH) Activity” value is reported as “A (GI50 < 50 nM)”.

For the compound `C=CC(=O)Nc1cc(Nc2cc(N3OCC[C@@H]3c3ccc4ccccc4c3)ncn2)c(OC)cc1N1CCO[C@@H](C)C1` [compound 659, N-(4-methoxy-2-((S)-2-methylmorpholino)-5-((6-((R)-3-(naphthalene-2-yl)isoxazolidine-2-yl)pyrimidine-4-yl)amino)phenyl)acrylamide], the “Ba/F3 (NPH) Activity” value is given as “B (50 nM ≤ GI50 < 500 nM)”.

On to `C=CC(=O)Nc1cc(Nc2cc(N3OCC[C@@H]3c3ccc(F)c(Cl)c3)ncn2)c(OC)cc1N1CCC(N2C[C@@H](C)N(C3CC3)C[C@H]2C)CC1` [Example 178, N-(5-((6-((R)-3-(3-chloro-4-fluorophenyl)isoxazolidine-2-yl)pyrimidine-4-yl)amino)-2-(4-((2R,5R)-4-cyclopropyl-2,5-dimethylpiperazine-1-yl)piperidine-1-yl)-4-methoxyphenyl) acrylamide], for which the “Ba/F3 (NPH) Activity” value was “A (GI50 < 50 nM)”.

Consider `C=CC(=O)Nc1cc(Nc2cc(N3OCC[C@@H]3c3cc(F)cc(Cl)c3)ncn2)c(OC)cc1N1CCN(C2COC2)CC1` [compound 597, N-(5-((6-((R)-3-(3-chloro-5-fluorophenyl)isoxazolidine-2-yl)pyrimidine-4-yl)amino)-4-methoxy-2-(4-(oxetane-3-yl)piperazine-1-yl)phenyl) acrylamide], for which the “Ba/F3 (NPH) Activity” value was “A (GI50 < 50 nM)”.

In the case of `C=CC(=O)Nc1cc(Nc2cc(N3OCC[C@@H]3c3cc(F)cc(F)c3)ncn2)c(OC)cc1N1CCC(N2CCN(C(C)C)CC2)CC1` [Example 265, N-(5-((6-((R)-3-(3,5-difluorophenyl)isoxazolidine-2-yl)pyrimidine-4-yl)amino)-2-(4-(4-isopropylpiperazine-1-yl)piperidine-1-yl)-4-methoxyphenyl) acrylamide], the “Ba/F3 (NPH) Activity” value was “A (GI50 < 50 nM)”.

On to `C=CC(=O)Nc1cc(Nc2cc(N3OCC[C@@H]3c3cccc(Cl)c3)ncn2)c(OC)cc1N1CCC(N2C[C@@H](C)O[C@@H](C)C2)CC1` [compound 415, N-(5-((6-((R)-3-(3-chlorophenyl)isoxazolidine-2-yl)pyrimidine-4-yl)amino)-2-(4-((2S,6R)-2,6-dimethylmorpholino)piperidine-1-yl)-4-methoxyphenyl) acrylamide], for which the “Ba/F3 (NPH) Activity” value is given as “A (GI50 < 50 nM)”.

With `C=CC(=O)Nc1cc(Nc2cc(N3OCC[C@@H]3Cc3cccc(Cl)c3Cl)ncn2)c(OC)cc1N1CCC(N2CCO[C@@H](C)C2)CC1` [compound 1013, N-(5-((6-((S)-3-(2,3-dichlorobenzyl)isoxazolidine-2-yl)pyrimidine-4-yl)amino)-4-methoxy-2-(4-((S)-2-methylmorpholino)piperidine-1-yl)phenyl) acrylamide], the “Ba/F3 (NPH) Activity” value is recorded as “A (GI50 < 50 nM)”.

As to `C=CC(=O)Nc1cc(Nc2cc(N3OCC[C@@H]3c3cccc4ccccc34)ncn2)c(OC)cc1N1CCC(N2C[C@@H](C)O[C@@H](C)C2)CC1` [compound 491, N-(2-(4-((2S,6R)-2,6-dimethylmorpholino)piperidine-1-yl)-4-methoxy-5-((6-((R)-3-(naphthalene-1-yl)isoxazolidine-2-yl)pyrimidine-4-yl)amino)phenyl)acrylamide], the “Ba/F3 (NPH) Activity” value is reported as “B (50 nM ≤ GI50 < 500 nM)”.

For `C=CC(=O)Nc1cc(Nc2cc(N3OCC[C@@H]3c3ccc(F)cc3)ncn2)c(OC)cc1N1CCC(N2CCN(C3COC3)CC2)CC1` [Example 85, N-(5-((6-((R)-3-(4-fluorophenyl)isoxazolidine-2-yl)pyrimidine-4-yl)amino)-4-methoxy-2-(4-(4-(oxetane-3-yl)piperazine-1-yl)piperidine-1-yl)phenyl) acrylamide], the “Ba/F3 (NPH) Activity” value is “A (GI50 < 50 nM)”.

Turning to `C=CC(=O)Nc1cc(Nc2cc(N3OCC[C@H]3c3c(F)cccc3F)ncn2)c(OC)cc1N1CCN(C)CC1` [compound 307, N-(5-((6-((S)-3-(2,6-difluorophenyl)isoxazolidine-2-yl)pyrimidine-4-yl)amino)-4-methoxy-2-(4-methylpiperazine-1-yl)phenyl)acrylamide], the “Ba/F3 (NPH) Activity” value is “C (500 nM ≤ GI50 < 5000 nM)”.

The values are drawn from patent US12157730B2, “Heteroaryl derivative, method for producing same, and pharmaceutical composition comprising same as effective component” (VORONOI INC., priority 2019, dated 2024).
